Results as given in PubChem BioAssay AID652280 (Broad Institute, 2013).
Inconclusive results are not listed. Active and inactive are the calls of the source. No rule for the calls is given here.

Test system: not listed separately
Assay: NIH/3T3 fibroblast cytotoxicity, dose response, cytotoxicity control, cell-based, plate reader, dry powder, set 2 (AID 652280)
Settings: NIH/3T3 mouse fibroblast toxicity, plate reader; at 16 µM (top of the series)

Structure (SMILES) | activity change, negative = toxicity
CN(C)C(=O)c1ccc(-c2ccc([C@H]3[C@H](CO)N4CCCCN(Cc5cncnc5)C[C@@H]34)cc2)cc1 | 10.1% (inactive)
CCN(C)C[C@H]1Oc2c(NC(=O)c3ccncc3)cccc2C(=O)N(C(C)C)[C@@H]1C | -7.46% (inactive)
Cc1cccc(-c2ccc([C@H]3[C@H](CO)N4CCCCN(C(=O)c5ccncc5)C[C@@H]34)cc2)c1 | -19.7% (inactive)
CNC[C@@H]1Oc2c(NC(=O)c3ccncc3)cccc2C(=O)N(C(C)C)C[C@H]1C | 1.96% (inactive)
CC(C)(C)S(=O)N1Cc2cc(C(=O)NCc3ccc4c(c3)OCO4)nc(-c3cccc(-c4cc5ccccc5o4)c3)c2[C@H]1CCO (stereo not given in full) | -5.85% (inactive)
CC(C)N1C[C@@H](CNCc2ccc(Oc3ccccc3)cc2)Oc2c(NC(=O)c3ccncc3)cccc2C1=O | -29.5% (inactive)
Cc1ccccc1CN(C)C[C@H]1Oc2c(NC(=O)c3ccncc3)cccc2C(=O)N([C@@H](C)CO)C[C@@H]1C | -4.8% (inactive)
CC(C)N1CC2(CN(C(=O)OC(C)(C)C)C2)Oc2c(NC(=O)c3ccncc3)cccc2C1=O | -9.89% (inactive)
C[C@H]1CN([C@@H](C)CO)C(=O)c2cccc(NC(=O)c3ccncc3)c2O[C@@H]1CN(C)Cc1ccc(Cl)c(F)c1 | -25.3% (inactive)
CCC(=O)N1CC[C@@H]2[C@H]1c1cc(-c3ccccc3)ccc1N(C)[C@@H]2CO | -26.5% (inactive)
O=C(Cc1ccccn1)N1CCCCN2[C@@H](CO)[C@H](c3ccc(-c4ccccc4)cc3)[C@@H]2C1 | -15.8% (inactive)
CCOC(=O)c1cc2c(c(-c3cccc(C#CCN(C)C)c3)n1)[C@@H](CCO)N(S(=O)C(C)(C)C)C2 (stereo not given in full) | 21.1% (inactive)
CC(C)N1CC2(CN(Cc3ccccn3)C2)Oc2c(NC(=O)c3ccncc3)cccc2C1=O | -3.3% (inactive)
C[C@@H]1CN([C@@H](C)CO)C(=O)c2cc(Br)cnc2O[C@H]1CN(C)Cc1ccc2c(c1)OCO2 | -12% (inactive)
CC(C)N1CC2(CN(Cc3ccccc3Cl)C2)Oc2c(NC(=O)c3ccncc3)cccc2C1=O | -16.5% (inactive)
CC(C)N1CC2(CN(Cc3ccc(F)c(F)c3)C2)Oc2c(NC(=O)c3ccncc3)cccc2C1=O | -3.93% (inactive)
CC(C)N1C[C@@H](CN(C)Cc2ccc(Cl)cc2)Oc2c(NC(=O)c3ccnnc3)cccc2C1=O | 2.62% (inactive)
C[C@@H]1CCCCO[C@H](CN(C)Cc2ccc(Cl)c(Cl)c2)[C@@H](C)CN([C@H](C)CO)C(=O)c2cc(N(C)C)ccc2O1 | 82.1% (inactive)
C[C@@H]1CN([C@@H](C)CO)C(=O)c2cccc(NC(=O)c3ccncc3)c2O[C@@H]1CN(C)Cc1ccc(Oc2ccccc2)cc1 | 15.4% (inactive)
CN(C)CC#Cc1cccc(-c2nc(C(=O)NCc3ccc4c(c3)OCO4)cc3c2[C@@H](CCO)N(S(=O)C(C)(C)C)C3)c1 (stereo not given in full) | 0.74% (inactive)
C[C@@H]1CN([C@@H](C)CO)C(=O)c2cccc(NC(=O)c3ccncc3)c2O[C@H]1CN(C)C | -10.2% (inactive)
CN(C)C(=O)c1ccc(-c2ccc([C@H]3[C@H](CO)N4CCCCN(C(=O)C5CCCC5)C[C@@H]34)cc2)cc1 | -15.7% (inactive)
CN(C)C(=O)c1cccc(-c2ccc([C@H]3[C@H](CO)N4CCCCN(C(=O)C5CCC5)C[C@@H]34)cc2)c1 | 11.8% (inactive)
COc1ccc(CN(C)C[C@@H]2Oc3c(NC(=O)c4ccncc4)cccc3C(=O)N([C@@H](C)CO)C[C@H]2C)cc1 | -22.2% (inactive)

Structure (SMILES) | activity change, negative = toxicity
CC(C)N1C[C@@H](C)[C@H](CN(C)Cc2ccc(Oc3ccccc3)cc2)Oc2c(C(=O)O)cccc2C1=O | 9.6% (inactive)
CC(C)N1C[C@@H](CN)Oc2c(NC(=O)c3ccncc3)cccc2C1=O | 22.7% (inactive)
COCCNC(=O)c1cc2c(c(-c3cccc(C#CCN(C)C)c3)n1)[C@H](CCO)N(S(=O)C(C)(C)C)C2 (stereo not given in full) | 20.8% (inactive)
C[C@H]1CN([C@@H](C)CO)C(=O)c2cccc(NC(=O)c3ccncc3)c2O[C@@H]1CN(C)Cc1cc(Cl)cc(Cl)c1 | 15% (inactive)
CC(C)(C)[S@@](=O)N1Cc2cc(C(=O)NCc3ccc4c(c3)OCO4)nc(-c3cccc(-c4ccccc4)c3)c2[C@H]1CCO | 14.4% (inactive)
COc1ccc(S(=O)(=O)N(C)C[C@H]2OCCCC[C@@H](C)Oc3ccc(N(C)C)cc3C(=O)N([C@H](C)CO)C[C@@H]2C)cc1 | 12.3% (inactive)
CC(C)N1CC[C@@H](CNC(=O)OC(C)(C)C)Oc2c(NC(=O)c3ccncc3)cccc2C1=O | -8.28% (inactive)
CN(C)C(=O)c1cccc(-c2ccc([C@H]3[C@H](CO)N4CCCCN(CC5CCOCC5)C[C@@H]34)cc2)c1 | 20% (inactive)
CC(C)(C)S(=O)N1Cc2cc(C(=O)NCc3ccc4c(c3)OCO4)nc(-c3cccc(C#CCC4CCCC4)c3)c2[C@@H]1CCO (stereo not given in full) | 83.4% (inactive)
CC(C)N1C[C@@H](C)[C@H](CN(C)Cc2ccc(Oc3ccccc3)cc2)Oc2c(cccc2N(C)C(=O)c2ccncc2)C1=O | -4.89% (inactive)
OC[C@H]1[C@H](c2ccc(Br)cc2)[C@@H]2CN(Cc3ccccn3)CCCCN12 | 5.37% (inactive)
C[C@@H]1CN([C@H](C)CO)C(=O)c2cccc(NC(=O)c3ccncc3)c2O[C@H]1CN(C)Cc1ccc2c(c1)OCO2 | -14.9% (inactive)
CN(C)CC#Cc1cccc(-c2nc(C(=O)O)cc3c2[C@H](CCO)N(S(=O)C(C)(C)C)C3)c1 (stereo not given in full) | -1.94% (inactive)
CC(C)N1C[C@H](C)[C@@H](CN(C)Cc2ccc(Cl)c(Cl)c2)Oc2c(cccc2-c2nn[nH]n2)C1=O | -0.771% (inactive)
CC(C)N1C[C@H](CNCc2ccc(Oc3ccccc3)cc2)Oc2c(NC(=O)c3ccncc3)cccc2C1=O | 5.88% (inactive)
CN(C)C(=O)c1cccc(-c2ccc([C@H]3[C@@H](CO)N4CCCCN(C(=O)C5CCC5)C[C@@H]34)cc2)c1 | 1.53% (inactive)
COc1ccc(C#Cc2cccc(-c3nc(C(=O)NCc4ccc5c(c4)OCO5)cc4c3[C@@H](CCO)N(S(=O)C(C)(C)C)C4)c2)cc1OC (stereo not given in full) | 9.35% (inactive)
CN(C)CC#Cc1cccc(-c2nc(C(=O)NCc3ccc(Oc4ccccc4)cc3)cc3c2[C@H](CCO)N(S(=O)C(C)(C)C)C3)c1 (stereo not given in full) | 63.9% (inactive)
C[C@H]1CN([C@@H](C)CO)C(=O)c2cccc(NC(=O)c3ccncc3)c2O[C@@H]1CN(C)Cc1ccccc1Cl | -7.97% (inactive)
CN(C)C(=O)c1cccc(-c2ccc([C@H]3[C@@H](CO)N4CCCCN(C(=O)C5CCC5)C[C@H]34)cc2)c1 | 9.2% (inactive)
CC(C)N1CC2(CN(Cc3ccc(Cl)cc3)C2)Oc2c(NC(=O)c3ccncc3)cccc2C1=O | -2.46% (inactive)
CN(C)CC(=O)N1CCCCN2[C@@H](CO)[C@H](c3ccc(-c4cccnc4)cc3)[C@@H]2C1 | 0.846% (inactive)
CC(C)N1C[C@H](CNCc2ccc(Cl)cc2)Oc2c(NC(=O)c3ccncc3)cccc2C1=O | -20.3% (inactive)
C[C@H]1CN([C@@H](C)CO)C(=O)c2cccc(NC(=O)c3ccncc3)c2O[C@@H]1CN(C)Cc1cccc(Cl)c1 | -20.7% (inactive)

Same assay, conditions: NIH/3T3 mouse fibroblast toxicity, plate reader; at 18 µM (top of the series)

Structure (SMILES) | activity change, negative = toxicity
Cc1ccc(S(=O)(=O)N(C)C[C@H]2OCCCC[C@@H](C)Oc3ccc(N(C)C)cc3C(=O)N([C@H](C)CO)C[C@@H]2C)cc1 | 25.8% (inactive)

Test system: NIH/3T3 mouse fibroblast toxicity, plate reader
Assay: as above
Settings: not given

Structure (SMILES) | AC50
C[C@@H]1CN([C@@H](C)CO)C(=O)c2cccc(NC(=O)c3ccncc3)c2O[C@H]1CN(C)Cc1ccc(Oc2ccccc2)cc1 | 3.31 µM
